Experimental data: patent US20150087619A1, “METHOD OF MITIGATING VIRUS ASSOCIATED END-ORGAN DAMAGE” (CHIMERIX, INC., priority 2012, published 2015)

Experiments:
EBV = test: In vitro antiviral activity in cell culture; type: cell-based; conditions: human gammaherpesvirus 4
HSV-1 = test: In vitro antiviral activity in cell culture; type: cell-based; conditions: HSV-1, cell culture; for EC50: Human alphaherpesvirus 1
VZV = test: In vitro antiviral activity in cell culture; conditions: for EC50: Human alphaherpesvirus 3, read-out: EC50s
CMV = test: In vitro antiviral activity in cell culture; type: cell-based; conditions: Human betaherpesvirus 5
HHV-6(B) = test: In vitro antiviral activity in cell culture; type: cell-based
AdV = test: In vitro antiviral activity in cell culture; type: cell-based
BKV [1] = test: In vitro antiviral activity in cell culture; type: cell-based
BKV [2] = test: Study HDP-CDV-201: serum creatinine as marker of renal function
BKV [3] = test: Study HDP-CDV-201: hematuria and BKV bladder events; type: in vivo, human
Experimental: A multicenter, randomized, double-blind, placebo-controlled, dose-escalation study of safety, tolerability, and ability of HDP-CDV to prevent or control […], and EBV infection and associated disorders was conducted. During enrollment of patients in the study, urine samples of candidate patients were routinely screened for BKV. Plasma was collected from patients who tested positive for BKV viruria in urine, and AdV, EBV and BKV level in the plasma was evaluated.

[4] = BK positive during treatment (1/93)
[5] = BK positive during treatment, N=93

## CC(C)Nc1nc2cc(Cl)c(Cl)cc2n1[C@H]1O[C@@H](CO)[C@H](O)[C@@H]1O [Maribavir]
EBV
  EC50: 630 nM
HSV-1
  EC50s: No Activity
VZV; VZV, cell culture
  EC50s: No Activity
CMV
  EC50: 310 nM

## Nc1nc(O)c2ncn(COC(CO)CO)c2n1 [Ganciclovir]
HHV-6(B)
  EC50: 5900 nM
AdV
  EC50: 4500 to 33000 nM
BKV [1]
  EC50: > 200000 nM
EBV
  EC50: 900 nM
HSV-1
  EC50: 7 nM
VZV
  EC50: 1300 nM
CMV
  EC50: 3800 nM

## Nc1nc2c(ncn2COCCO)c(=O)[nH]1 [Acyclovir]
AdV
  EC50: > 100000 nM
BKV [1]
  EC50: > 200000 nM

## Nc1ccn(C[C@@H](CO)OCP(=O)(O)O)c(=O)n1 [Cidofovir]
HHV-6(B)
  EC50: 5400 nM
AdV
  EC50: 1300 nM
BKV [1]
  EC50: 115000 nM
EBV
  EC50: > 108000 nM
HSV-1
  EC50: 5500 nM
VZV
  EC50: 500 nM
CMV
  EC50: 400 nM

## CCCCCCCCCCCCCCCCOCCCOP(=O)(O)CO[C@H](CO)Cn1ccc(N)nc1=O [HDP-CDV]
BKV [2]; BK negative throughout
  >120 LAST; 1 + HEME NEW ONSET; CONFIRMED; >25% INC CREATININE: 1.3%
BKV [2]; BK negative throughout (1/78)
  CR >120 LAST VALUE; 1 + HEME CONFIRMED NEW ONSET: 1.3%
BKV [2]; BK negative throughout (6/78)
  >120; NEW; >25% INCREASE: 7.7%
  CREATININE >120 LAST VALUE AND NEW FROM BASELINE: 7.7%
BKV [2]; BK negative throughout (7/78), placebo 7.4%
  creatinine elevations >120 microM and =>25% increase over baseline: 9.0%
BKV [2]; BK negative throughout (10/78)
  CR >120 LAST VALUE: 12.8%
BKV [2]; BK negative throughout (11/78), placebo 11.1%
  creatinine elevations (>120 last and >25% increase from baseline) OR 1+ heme, confirmed, new onset: 14.1%
BKV [2]; BK negative throughout, N=78
  # (of CR >120 at baseline) THAT INCREASED >25%: 1
  # (of CR >120 at baseline) THAT INCREASED DURING TREATMENT: 1
BKV [2]; [4]
  >120 LAST; 1 + HEME NEW ONSET; CONFIRMED; >25% INC CREATININE: 1.1%
  CR >120 LAST VALUE; 1 + HEME CONFIRMED NEW ONSET: 1.1%
BKV [2]; BK positive during treatment (7/93)
  >120; NEW; >25% INCREASE: 7.5%
BKV [2]; BK positive during treatment (7/93), placebo 18.75%
  end of treatment creatinine elevations >120 microM and =>25% over baseline: 7.5%
BKV [2]; BK positive during treatment (10/93)
  CREATININE >120 LAST VALUE AND NEW FROM BASELINE: 10.8%
BKV [2]; BK positive during treatment (11/93), placebo 37.5%
  creatinine elevations (>120 last and >25% increase from baseline) OR 1+ heme, confirmed, new onset: 11.8%
BKV [2]; BK positive during treatment (14/93)
  CR >120 LAST VALUE: 15.1%
BKV [2]; [5]
  # (of CR >120 at baseline) THAT INCREASED >25%: 0
  # (of CR >120 at baseline) THAT INCREASED DURING TREATMENT: 0
BKV [3]; BK negative throughout (4/78)
  1 + HEME CONFIRMED; NEW ONSET: 5.1%
BKV [3]; BK positive during treatment (4/93)
  1 + HEME CONFIRMED; NEW ONSET: 4.3%
